IC50 data for 20 compounds are collected here from US9512107B2, “Therapeutically active compositions and their methods of use” (Agios Pharmaceuticals, Inc., priority 2012, dated 2016).

The target of one experiment is T1, IDH2 R172K (Homo sapiens, UniProt P48735, R172K).
T1 sequence (P48735 40-452 R172K): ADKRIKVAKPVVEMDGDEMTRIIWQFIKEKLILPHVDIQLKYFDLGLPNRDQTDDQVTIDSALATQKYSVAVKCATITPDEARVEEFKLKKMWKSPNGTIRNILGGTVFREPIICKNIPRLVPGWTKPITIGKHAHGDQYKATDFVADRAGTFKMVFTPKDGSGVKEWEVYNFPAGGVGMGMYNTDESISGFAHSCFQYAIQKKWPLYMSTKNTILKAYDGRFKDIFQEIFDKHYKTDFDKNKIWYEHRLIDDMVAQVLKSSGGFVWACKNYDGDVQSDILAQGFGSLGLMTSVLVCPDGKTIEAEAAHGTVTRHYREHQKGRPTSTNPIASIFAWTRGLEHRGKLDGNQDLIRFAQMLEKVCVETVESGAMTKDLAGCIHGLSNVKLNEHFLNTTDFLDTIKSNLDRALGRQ
The experiment can be described thus: IDH2 R172K enzymatic assay (NADPH cofactor depletion, diaphorase/resazurin readout). Type of experiment: biochemical. The note with it: read-out: Enz R172K. The procedure, abridged: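 Test compounds are incubated with the mutant enzyme for one hour at ambient temperature. A substrate mix of 50 μM NADPH plus 6.3 mM α-KG initiates turnover, which proceeds for one hour. Diaphorase and resazurin then halt the reaction by depleting the cofactor and convert the remaining NADPH into a fluorescent signal.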
For orientation: Resazurin is reduced to fluorescent resorufin, in cell work by metabolically active cells.

Experiment [1] deals with U87MG pLVX-IDH2 R140Q-neo cells. The experiment can be described thus: U87MG pLVX-IDH2 R140Q-neo cell based assay, 2-HG in media by LC-MS at 48 hours. Conditions: Homo sapiens, U-87 MG. The procedure, abridged: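 U87MG cells stably expressing IDH2 R140Q were seeded overnight, then exposed to compound at 0.2% final DMSO at 37 °C, 5% CO2. 2-HG in the medium was quantified by LC-MS at 48 h. Growth inhibition was read by CellTiter-Glo luminescence at 72 h.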

The target in another experiment is T2, IDH2 R140Q (Homo sapiens, UniProt P48735, R140Q).
T2 sequence (P48735 40-452 R140Q): T1 sequence (P48735 40-452 R172K) with R101Q, K133R
Nature of the experiment: IDH2 R140Q enzymatic assay (cofactor depletion, similar format). Type of experiment: biochemical. The note with it: read-out: Enz R140Q.

Molecules are shown by their SMILES. Substitutions are numbered along the chain they refer to.

For the compound `Cc1cc(-c2nc(Nc3cccc(F)c3)nc(NC(C)C)n2)no1` [Compound 472, N-(3-Fluoro-phenyl)-N′-isopropyl-6-(5-methyl-isoxazol-3-yl)-[1,3,5]triazine-2,4-diamine], the IC50 on IDH2 R172K is 0.1 to 1 µM; in experiment [1], under 0.1 µM; at IDH2 R140Q, under 0.1 µM.
Regarding `CC(C)Nc1nc(Nc2ccnc(C(C)(C)O)c2)nc(-c2ccccc2F)n1` [Compound 632, 2-(4-((4-(2-fluorophenyl)-6-(isopropylamino)-1,3,5-triazin-2-yl)amino)pyridin-2-yl)propan-2-ol], the IC50 was 0.1 to 1 µM on IDH2 R172K, under 0.1 µM in experiment [1] and 0.1 to 1 µM at IDH2 R140Q.
Turning to `CC(C)(C)CNc1nc(Nc2cncc(C#N)c2)nc(-c2cccc(Cl)n2)n1` [Compound 498, 5-[4-(6-Chloro-pyridin-2-yl)-6-(2,2-dimethyl-propylamino)-[1,3,5]triazin-2-ylamino]-nicotinonitrile], the values for the IC50 (on IDH2 R172K; in experiment [1]; on IDH2 R140Q) were 1 to 10 µM, 0.1 to 1 µM and 0.1 to 1 µM, respectively.
As to `CC(C)(C)Nc1nc(Nc2cc(F)cc(S(C)(=O)=O)c2)nc(-c2cccc(C(C)(F)F)n2)n1` [Compound 616, N2-(tert-butyl)-6-(6-(1,1-difluoroethyl)pyridin-2-yl)-N4-(3-fluoro-5-(methylsulfonyl)phenyl)-1,3,5-triazine-2,4-diamine], the IC50 on IDH2 R172K is under 0.1 µM; in experiment [1], under 0.1 µM; on IDH2 R140Q, 0.1 to 1 µM.
Consider `CC(C)Nc1nc(Nc2ccccc2)nc(-c2cccc(Cl)n2)n1` [Compound 229, 6-(6-chloropyridin-2-yl)-N^2-isopropyl-N^4-phenyl-1,3,5-triazine-2,4-diamine], for which the IC50 (at IDH2 R172K; in experiment [1]; on IDH2 R140Q) was under 0.1 µM in each case.
With `CC(C)Nc1nc(Nc2cccc(S(=O)(=O)NCC3CC3)c2)nc(-c2cccc(Cl)n2)n1` [Compound 497, 3-[4-(6-Chloro-pyridin-2-yl)-6-isopropylamino-[1,3,5]triazin-2-ylamino]-N-cyclopropylmethyl-benzenesulfonamide], the values for the IC50 (at IDH2 R172K; in experiment [1]; at IDH2 R140Q) were 0.1 to 1 µM, under 0.1 µM and 0.1 to 1 µM, respectively.
In the case of `CC(F)(F)c1cccc(-c2nc(NCC3CC3)nc(Nc3cc(Cl)cc(S(C)(=O)=O)c3)n2)n1` [Compound 609, N2-(3-chloro-5-(methylsulfonyl)phenyl)-N4-(cyclopropylmethyl)-6-(6-(1,1-difluoroethyl)pyridin-2-yl)-1,3,5-triazine-2,4-diamine], the IC50 at IDH2 R172K was under 0.1 µM; in experiment [1] it was under 0.1 µM; on IDH2 R140Q, 0.1 to 1 µM.
Regarding `Nc1ccnc(-c2nc(NCC(F)(F)F)nc(Nc3cc(F)cc(F)c3)n2)n1` [Compound 480, 6-(4-Amino-pyrimidin-2-yl)-N-(3,5-difluoro-phenyl)-N′-(2,2,2-trifluoro-ethyl)-[1,3,5]triazine-2,4-diamine], the IC50 at IDH2 R172K is 0.1 to 1 µM; in experiment [1], under 0.1 µM; on IDH2 R140Q, 0.1 to 1 µM.
Turning to `CC(C)Nc1nc(Nc2ccnc(C(F)(F)F)c2)nc(-c2cccc(CO)c2)n1` [Compound 639, {3-[4-Isopropylamino-6-(2-trifluoromethyl-pyridin-4-ylamino)-[1,3,5]triazin-2-yl]-phenyl}-methanol], the results for the IC50 (on IDH2 R172K; in experiment [1]; on IDH2 R140Q) were under 0.1 µM, under 0.1 µM and 0.1 to 1 µM, respectively.
For the compound `CC(C)Nc1nc(Nc2ccccc2)nc(-c2cccc(C#N)c2)n1` [Compound 128], the IC50 at IDH2 R172K fell in the range of 1 to 10 µM; in experiment [1], 1 to 10 µM; on IDH2 R140Q, 0.1 to 1 µM.
Turning to `CC(C)Nc1nc(Nc2ccncc2)nc(-c2ccccc2F)n1` [Compound 227, 6-(2-fluorophenyl)-N^2-isopropyl-N^4-(pyridin-4-yl)-1,3,5-triazine-2,4-diamine], the IC50 on IDH2 R172K is 0.1 to 1 µM; in experiment [1], under 0.1 µM; at IDH2 R140Q it was under 0.1 µM.
As for `O=C(Nc1nc(Nc2ccccc2)nc(-c2ccccc2)n1)C1CC1` [Compound 233, N-(4-phenyl-6-(phenylamino)-1,3,5-triazin-2-yl)cyclopropanecarboxamide], the IC50 is 0.1 to 1 µM on IDH2 R172K, under 0.1 µM in experiment [1] and under 0.1 µM at IDH2 R140Q.
As for `CC(C)Nc1nc(Nc2cc(F)cc(F)c2)nc(-c2ccc(N)nc2)n1` [Compound 645, 6-(6-aminopyridin-3-yl)-N2-(3,5-difluorophenyl)-N4-isopropyl-1,3,5-triazine-2,4-diamine], the IC50 at IDH2 R172K is 0.1 to 1 µM; in experiment [1], under 0.1 µM; on IDH2 R140Q, 0.1 to 1 µM.
Consider `FC(F)(F)c1cc(Nc2nc(Nc3cncs3)nc(-c3cccc(C(F)(F)F)n3)n2)ccn1` [Compound 546, N2-(thiazol-5-yl)-6-(6-(trifluoromethyl)pyridin-2-yl)-N4-(2-(trifluoromethyl)pyridin-4-yl)-1,3,5-triazine-2,4-diamine], for which the IC50 at IDH2 R172K was 0.1 to 1 µM; in experiment [1] it was under 0.1 µM; at IDH2 R140Q, 0.1 to 1 µM.
As for `COCCCNc1nc(Nc2ccnc(C(F)(F)F)c2)nc(-c2cccc(C(F)(F)F)n2)n1` [Compound 528, N-(3-Methoxy-propyl)-N′-(2-trifluoromethyl-pyridin-4-yl)-6-(6-trifluoromethyl-pyridin-2-yl)-[1,3,5]triazine-2,4-diamine], the IC50 at IDH2 R172K is 0.1 to 1 µM; in experiment [1] it was under 0.1 µM; at IDH2 R140Q, 0.1 to 1 µM.
For `CC1(CNc2nc(Nc3ccnc(C(F)(F)F)c3)nc(-c3cccc(C(F)(F)F)n3)n2)CCCO1` (stereo not drawn) [Compound 531, N-(2-Methyl-tetrahydro-furan-2-ylmethyl)-6-(6-trifluoromethyl-pyridin-2-yl)-N′-(2-trifluoromethyl-pyridin-4-yl)-[1,3,5]triazine-2,4-diamine], the values for the IC50 (on IDH2 R172K; in experiment [1]; at IDH2 R140Q) were under 0.1 µM, under 0.1 µM and 0.1 to 1 µM, respectively.
Regarding `CC(C)(C)Nc1nc(Nc2ccncc2)nc(-c2ccccc2)n1` [Compound 189, N^2-tert-butyl-6-phenyl-N^4-(pyridin-4-yl)-1,3,5-triazine-2,4-diamine], the IC50 at IDH2 R172K was 1 to 10 µM; in experiment [1], 0.1 to 1 µM; at IDH2 R140Q, under 0.1 µM.
On the same counts, the results for `FC(F)(F)c1cc(Nc2nc(NC3CCOC3)nc(-c3cccc(C(F)(F)F)n3)n2)ccn1` (stereo not drawn) [Compound 529, N-(Tetrahydro-furan-3-yl)-N′-(2-trifluoromethyl-pyridin-4-yl)-6-(6-trifluoromethyl-pyridin-2-yl)-[1,3,5]triazine-2,4-diamine] are under 0.1 µM, under 0.1 µM and 0.1 to 1 µM.
The matching figures for `CC(C)Nc1nc(Nc2ccnc(C(C)(F)F)c2)nc(-c2cccc(N)n2)n1` [Compound 696, 6-(6-aminopyridin-2-yl)-N2-(2-(1,1-difluoroethyl)pyridin-4-yl)-N4-isopropyl-1,3,5-triazine-2,4-diamine]: 0.1 to 1 µM, under 0.1 µM and 0.1 to 1 µM.
On the same counts, the results for `CC(C)Nc1nc(Nc2cccc(S(=O)(=O)C(C)C)c2)nc(-c2ccccc2)n1` [Compound 206, N^2-isopropyl-N^4-(3-(isopropylsulfonyl)phenyl)-6-phenyl-1,3,5-triazine-2,4-diamine] are 0.1 to 1 µM, 0.1 to 1 µM and under 0.1 µM.
